Measured values taken from patent publication US20150335547A1, “ORAL CARE COMPOSITION CONTAINING IONIC LIQUIDS” (priority 2012, published 2015).

system: biofilm; assay: biofilm removal by ionic liquids (training set for QSFR model); format: cell-based; settings: where two values were available (MMPZ MeSO4, EMIM Tosylate) the value obtained at the higher pH
Source text: The process of QSFR model building involves assembling a dataset with experimental results and molecular structures, descriptor calculation and contingency analysis followed by model generation and validations. Ionic liquids with biofilm removal data served as a data set for model generation. The details of the dataset are shown in Table 1 (ID and biofilm removal data for ionic liquids selected for model generation (training set).

| Compound | % removal of biofilm [%] |
| --- | --- |
| CC(=O)[O-].CCCCn1cc[n+](C)c1 [BMIMOAc, BMIM acetate (OAc)] | 55.9 |
| CCn1cc[n+](C)c1.[Cl-] [EMIM Cl, 1-ethyl-3-methylimidazolium (EMIM) chloride (Cl)] | 44.3 |
| 1-ethyl-3-methylimidazolium ethylsulphate [EMIM Ethyl SO4] | 48.1 |
| COS(=O)(=O)[O-].Cc1cn(C)[n+](C)c1 [MMMPz MeSO4, 1,2,4-trimethylpyrazolium (MMMPZ) methyl sulfate] | 57.8 |
| CCn1cc[n+](C)c1.[Br-] [EMIM Br, EMIM bromide (Br)] | 48.6 |
| CCCCn1cc[n+](C)c1.[Cl-] [BMIM Cl, 1-butyl-3-methylimidazolium (BMIM) chloride (Cl)] | 43.8 |
| CCn1cc[n+](C)c1.Cc1ccc(S(=O)(=O)[O-])cc1 [EMIM Tosylate, EMIM tosylate] | 59.5 |
| Tris(2-hydroxyethyl)methylammonium methylsulphate [MTEOA MeSO4] | 52.8 |
| CCCCCCCCCCn1cc[n+](C)c1.[Cl-] [DMIM CL, 1-decyl-3-methylimidazolium (DMIM) chloride] | 57.3 |
| 1,2,3-trimethylimidazolium methyl sulfate [TMIM MeSO4] | 51.8 |
| CCCCn1cc[n+](C)c1.[Br-] [BMIM Br, BMIM bromide (Br)] | 48.0 |
| C=CCn1cc[n+](C)c1.[Cl-] [AMIM Cl, 1-allyl-3-methylimidazolium (AMIM) chloride] | 44.8 |
| CCCCCCCCOS(=O)(=O)[O-].CCCCn1cc[n+](C)c1 [BMIM Octyl SO4, BMIM octyl sulfate] | 58.6 |
| CCOP(=O)([O-])OCC.CCn1cc[n+](C)c1 [EMIM diethyl PO4, EMIM diethyl phosphate] | 52.7 |
| CCCCn1cc[n+](C)c1.COS(=O)(=O)[O-] [BMIM MeSO4, BMIM methyl sulfate] | 53.9 |
